Measured values taken from patent US20080261810A1, “Insecticides Based on Neonicotinoids and Safeners” (priority 2004, published 2008).
Where two headings read alike, the source gives them in different places.

Columns and labels:
[1] = system: green peach aphid (Myzus persicae); assay type: in vivo
Description: To produce a suitable preparation of active compound, 1 part by weight of active compound is mixed with the stated amounts of solvent and emulsifier, and the concentrate is diluted with emulsifier-containing water to the desired concentration.
Cabbage leaves (Brassica oleracea) which are heavily infested by the green peach aphid (Myzus persicae) are treated by being dipped into the preparation of active compound of the desired concentration.
After the desired period of time, the kill in % is determined. 100% means that all aphids have been killed; 0% means that none of the aphids have been killed. The determined kill rates are entered into Colby's formula.

[2] = system: caterpillars of the diamond back moth (Plutella xylostella, sensitive strain); settings: in vivo
Description: After the desired period of time, the kill in % is determined. 100% means that all caterpillars have been killed; 0% means that none of the caterpillars have been killed. The determined kill rates are entered into Colby's formula.

Compound: CN/C(=N\[N+](=O)[O-])NCc1cnc(Cl)s1 [Clothianidin, clothianidin]
- Mortality in % after 1^d ([1]; 0.8 ppm, active compound alone): 40%

Compound: O=[N+]([O-])/N=C1\NCCN1Cc1ccc(Cl)nc1 [Imidacloprid, imidacloprid]
- Mortality in % after 1^d [2]: 40%
- Mortality in % after 1^d ([1]; in vivo): 45%
